Experimental data published in patent US12060350B2, “Therapeutic compounds and methods of use thereof” (REGENTS OF THE UNIVERSITY OF MINNESOTA, priority 2018, dated 2024).

System: human whole blood
Experiment: IFN-α/β, IFN-γ, and TNF-α/IL-1β whole blood reporter gene assays (cytokine release)
Format: cell-based
Conditions: FIG. 4
Method: IFN-α/β, IFN-γ, and TNF-α/IL-1β Whole Blood Reporter Gene Assays. Whole heparinized blood is collected from consenting individuals, as approved by the University of Minnesota Institutional Review Board, and is diluted 1:2 in RPMI supplemented with 10% fetal bovine serum (FBS). Forty microliters is added to 384-well, flat-bottomed, cell culture-treated microtiter plates containing serial dilutions of compounds. Following incubation at 37° C. for 24 h, […] of supernatant is transferred to separate 384-well plates using a liquid handler equipped with liquid level sensing in order to avoid disturbing the erythrocyte-rich pellet. Forty microliters of HEK-IFNα/β, HEK-IFNγ, or HEK-TNFα/IL-β cytokine reporter cells (InvivoGen, San Diego, CA) harvested at a density of 1×10^6 cells/mL in DMEM with 10% FBS is added to the supernatant plates and incubated at 37° C. for 24 h. […] Sigmoidal dose-response profiles for each cytokine are observed (Beesu M. et al. J. Med. Chem. 2017, 2084), from which threshold cytokine concentrations corresponding to maximal responses for each cytokine reporter cell line are recorded. […]

With CCCCc1nc2c(N)nc3ccccc3c2n1Cc1cc(C)c(O)c(CN)c1 [Compound 29, 4-((4-Amino-2-butyl-1H-imidazo[4,5-c]quinolin-1-yl)methyl)-2-(aminomethyl)-6-methylphenol] the “cytokine release in human whole blood” value was “can induce cytokine release strongly”.
